Results on 27 molecules are retold here after patent publication US10617680B2 (CELGENE QUANTICEL RESEARCH, INC., priority 2017, dated 2020).

pIC50: −log10 of the molar value.

The target in this test is CBP (Homo sapiens (Human), UniProt Q92793). The test is described as follows: In vitro CBP inhibition (AlphaScreen, biotinylated H4-tetraacetyl peptide). The class given is binding. The settings on record: AlphaScreen, Table 29; read-out: CBP IC50. Summed up:
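His-tagged CBP expressed in E. coli (50 nM final) incubated with biotinylated H4K5/8/12/16(Ac) peptide (20 nM final) in 50 mM HEPES pH 7.3, 10 mM NaCl, 0.25 mM TCEP, 0.1% BSA, 0.005% Brij-35, 0.4% DMSO, 20 min at room temp.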

Chain of CBP (Q92793 1081-1197): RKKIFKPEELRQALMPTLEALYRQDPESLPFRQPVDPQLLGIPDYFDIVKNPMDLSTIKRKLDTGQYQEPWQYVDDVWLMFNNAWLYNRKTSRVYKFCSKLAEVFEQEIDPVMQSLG

Turning to `Cn1cc(-c2cnn(-c3cccc(C4CC4)c3C#N)c2)c(-c2ccn(CCF)c(=O)c2)cc1=O` [Example 389, 2-cyclopropyl-6-[4-[4-[1-(2-fluoroethyl)-2-oxo-4-pyridyl]-1-methyl-6-oxo-3-pyridyl]pyrazol-1-yl]benzonitrile], the pIC50 is above 6.30.

As for `O=c1cc(-c2ccccc2)c(-c2cnn(Cc3ccccc3)c2)cn1C(F)F` [Example 35, 5-(1-benzyl-1H-pyrazol-4-yl)-1-(difluoromethyl)-4-phenyl-pyridin-2(1H)-one], the negative logarithm of the IC50 (pIC50) is 5.30 to 6.30.

Regarding `CC(C)Oc1cc(=O)n(C)cc1-c1cnn(C(C)c2ccccc2)c1` (stereo not drawn) [Example 36, 4-isopropoxy-1-methyl-5-(1-(1-phenylethyl)-1H-pyrazol-4-yl)pyridin-2(1H)-one], the pIC50 is above 6.30.

As to `Cn1cc(-c2cnn(-c3ccccc3C#N)c2)c(-c2cccnc2)cc1=O` [Example 237, 2-[4-(1′-Methyl-6′-oxo-1′,6′-dihydro-[3,4′]bipyridinyl-3′-yl)-pyrazol-1-yl]-benzonitrile], the pIC50 is above 6.30.

`Cn1cc(-c2cc(=O)n(C)cc2-c2cnn(-c3ccccc3-c3nnn[nH]3)c2)cn1` [Example 300, 1-Methyl-4-(1-methyl-1H-pyrazol-4-yl)-5-{1-[2-(1H-tetrazol-5-yl)-phenyl]-1H-pyrazol-4-yl}-1H-pyridin-2-one]: the pIC50 was above 6.30.

On to `CNS(=O)(=O)C1CCN(c2cc(=O)n(C)cc2-c2cnn(Cc3ccccc3)c2)C1` (stereo not drawn) [Example 172, 1-(5-(1-benzyl-1H-pyrazol-4-yl)-1-methyl-2-oxo-1,2-dihydropyridin-4-yl)-N-methylpyrrolidine-3-sulfonamide], for which the pIC50 was above 6.30.

As to `Cn1cc(-c2coc(-c3ccccc3)n2)c(-c2ccccc2)cc1=O` [Example 396, 1-methyl-4-phenyl-5-(2-phenyloxazol-4-yl)pyridin-2(1H)-one], the pIC50 is above 6.30.

Consider `Cn1cc(-c2cnn(Cc3ccc(F)cc3)c2)ccc1=O` [Example 6, 5-(1-(4-fluorobenzyl)-1H-pyrazol-4-yl)-1-methylpyridin-2(1H)-one], for which the negative logarithm of the IC50 (pIC50) is 5.30 to 6.30.

On to `CCOc1cc(=O)n(C)cc1-c1cnn(-c2cccc(Cl)c2C#N)c1` [Example 178, 2-Chloro-6-[4-(4-ethoxy-1-methyl-6-oxo-1,6-dihydro-pyridin-3-yl)-pyrazol-1-yl]-benzonitrile], for which the pIC50 is above 6.30.

For the molecule `COc1ccc(-c2cc(=O)n(C)cc2-c2cnn(CC3CC3(F)F)c2)cc1` (stereo not drawn) [Example 191, 5-[1-(2,2-Difluoro-cyclopropylmethyl)-1H-pyrazol-4-yl]-4-(4-methoxy-phenyl)-1-methyl-1H-pyridin-2-one], the pIC50 was above 6.30.

As to `COc1ccc(-c2cc(=O)n(C)cc2-c2cnn(-c3ccccc3S(C)(=O)=O)c2)cn1` [Example 285, 5′-[1-(2-Methanesulfonyl-phenyl)-1H-pyrazol-4-yl]-6-methoxy-1′-methyl-1′H-[3,4′]bipyridinyl-2′-one], the pIC50 is above 6.30.

As to `Cn1cc(-c2cnn(-c3cccc(Cl)c3C#N)c2)c(-c2cnc(NCC3CC3)nc2)cc1=O` [Example 327, 2-chloro-6-(4-(4-(2-((cyclopropylmethyl)amino)pyrimidin-5-yl)-1-methyl-6-oxo-1,6-dihydropyridin-3-yl)-1H-pyrazol-1-yl)benzonitrile], the pIC50 is above 6.30.

As to `Cc1cc(-c2cnn(-c3cc(Oc4ccccc4)ccc3C(=O)O)c2)cn(C)c1=O` [Example 259, 2-[4-(1,5-Dimethyl-6-oxo-1,6-dihydro-pyridin-3-yl)-pyrazol-1-yl]-4-phenoxy-benzoic acid], the pIC50 was below 5.30.

Regarding `Cn1cc(-c2cc(=O)n(C)cc2-c2cnn(Cc3ccccc3)c2)cn1` [Example 108, 5-(1-benzyl-1H-pyrazol-4-yl)-1-methyl-4-(1-methyl-1H-pyrazol-4-yl)pyridin-2(1H)-one], the negative-log IC50 (pIC50) is above 6.30.

Regarding `COc1ccc(C#N)c(-n2cc(-c3cn(C)c(=O)cc3-c3ccc(=O)[nH]c3)cn2)c1` [Example 260, 4-Methoxy-2-[4-(1′-methyl-6,6′-dioxo-1,6,1′,6′-tetrahydro-[3,4′]bipyridinyl-3′-yl)-pyrazol-1-yl]-benzonitrile], the pIC50 was above 6.30.

In the case of `CNC(=O)[C@H]1CCN(c2cc(=O)n(C)cc2-c2cnn(Cc3ccccc3)c2)C1` [Example 93, 1-[5-(1-benzyl-1H-pyrazol-4-yl)-1-methyl-2-oxo-1,2-dihydro-pyridin-4-yl]-pyrrolidine-3-methylacetamide], the pIC50 was above 6.30.

On to `CCCn1ccc(-c2cc(=O)n(C)cc2-c2cnn(-c3cccc(C4CC4)c3C#N)c2)cc1=O` [Example 385, 2-cyclopropyl-6-[4-[1-methyl-6-oxo-4-(2-oxo-1-propyl-4-pyridyl)-3-pyridyl]pyrazol-1-yl]benzonitrile], for which the pIC50 was above 6.30.

`Cn1cc(-c2cnn(-c3cccc(C4CC4)c3C#N)c2)c(-c2ccc(OCCF)nc2)cc1=O` [Example 387, 2-cyclopropyl-6-[4-[4-[6-(2-fluoroethoxy)-3-pyridyl]-1-methyl-6-oxo-3-pyridyl]pyrazol-1-yl]benzonitrile]: the pIC50 is above 6.30.

`Cc1nn(C)c(C)c1-c1cn(C)c(=O)cc1-c1ccccc1` [Example 145, 1-methyl-4-phenyl-5-(1,3,5-tri-methyl-1H-pyrazol-4-yl) pyridin-2(1H)-one]: the pIC50 is 5.30 to 6.30.

For the molecule `CN(C)S(=O)(=O)NC(=O)c1ccccc1-n1cc(-c2cn(C)c(=O)cc2C2CC2)cn1` [Example 304, N-[(dimethylamino)sulfonyl]-{2-[4-(4-cyclopropyl-1-methyl-6-oxo(3-hydropyridyl))pyrazolyl]phenyl}carboxamide], the pIC50 is above 6.30.

As for `CCOc1cc(=O)n(C)cc1-c1cnn2c1CCC2` [Example 95, 5-(5,6-dihydro-4H-pyrrolo[1,2-b]-pyrazol-3-yl)-4-ethoxy-1-methylpyridin-2(1H)-one], the negative logarithm of the IC50 (pIC50) is above 6.30.

In the case of `CC(C)Oc1cc(=O)n(C)cc1-c1cnn([C@H](C)c2ccccc2)c1` [Example 45, (R)-4-isopropoxy-1-methyl-5-(1-(1-phenylethyl)-1H-pyrazol-4-yl) pyridin-2(1H)-one], the pIC50 is above 6.30.

Consider `Cn1cc(-c2cnn(Cc3ccccc3)c2)c(N2CCC(S(C)(=O)=O)C2)cc1=O` (stereo not drawn) [Example 37, 5-(1-Benzyl-1H-pyrazol-4-yl)-4-(3-methanesulfonyl-pyrrolidin-1-yl)-1-methyl-1H-pyridin-2-one], for which the pIC50 is above 6.30.

Take `Cn1cc(-c2cnn(Cc3ccccc3)c2)c(SCC(=O)O)cc1=O` [Example 169, [5-(1-Benzyl-1H-pyrazol-4-yl)-1-methyl-2-oxo-1,2-dihydro-pyridin-4-ylsulfanyl]-acetic acid]: the pIC50 was above 6.30.

Regarding `CCOc1ccc(-c2cc(=O)n(C)cc2-c2cnn(-c3cccc(F)c3C#N)c2)cn1` [Example 359, 2-(4-(6-ethoxy-1′-methyl-6′-oxo-1′,6′-dihydro-[3,4′-bipyridin]-3′-yl)-1H-pyrazol-1-yl)-6-fluorobenzonitrile], the pIC50 is above 6.30.

For the molecule `CCOc1cc(=O)n(C)cc1-c1cnn(Cc2ccc(C)cc2)c1` [Example 65, 4-ethoxy-1-methyl-5-(1-(4-methylbenzyl)-1H-pyrazol-4-yl) pyridin-2(1H)-one], the pIC50 is above 6.30.

On to `CC(c1ccccc1)n1cc(-c2cn(C)c(=O)cc2OC2CCCCC2)cn1` (stereo not drawn) [Example 52, 4-(cyclohexyloxy)-1-methyl-5-(1-(1-phenylethyl)-1H-pyrazol-4-yl) pyridin-2(1H)-one], for which the negative logarithm of the IC50 (pIC50) was above 6.30.
